Measured values from patent US5409898A, “Compositions and methods for treating infections caused by organisms sensitive to β-lactam antibiotics” (priority 1994, dated 1995).
Like-named read-outs stand apart in the source and are kept apart here. Non-standard residues stand in square brackets, D forms with d. Residues, ends and D or L forms follow the SMILES beside them. No end group written: not given here. Orn = NCCC[C@H](N)C(=O)O

What was measured:
E. coli H16 [1] = experiment: In vivo protection of neutropenic mice from lethal E. coli H16 infection (magainin 2, C-13 peptide, cefepime, amikacin); settings: magainin 2 two injections 1 mg/mouse; amikacin two injections of 3 mg/kg
Description: The ability of magainin and cefepime combinations to protect mice from a lethal infection of E. coli was examined. Mice were made neutropenic by injection of Cytoxan and then challenged with E. coli. Mice were then divided into four different groups: (1) mice that were given no further treatment; (2) were given magainin 2 or C-13 peptide only; (3) were given cefepime only and (4) were given a combination of magainin 2 or C-13 peptide and cefepime. […] When amikacin, an aminoglycoside, was tested in similar experiments, no in vitro bactericidal activity or in vivo protection was found.
Mice were made neutropenic five days prior to bacterial challenge. Neutropenia was induced by subcutaneous injection of 250 mg/kg Cytoxan (cyclophosphamide). The mice were challenged with 2×10^4 E. coli H16. Challenge was by intraperitoneal injection. […] The survival of the mice was monitored for a period of at least 10 days

E. coli ATCC 25922 = experiment: Serum bactericidal assay in 40% pooled normal human serum (magainin 2 with antibiotics); assay type: cell-based, Escherichia coli; settings: for synergy of antibiotic with magainin 2: 1/32, 1/16, 1/8 MIC antibiotic, 200 μg/ml magainin 2, 40% pooled normal human serum
human red blood cells = experiment: Hemolysis assay; assay type: cell-based
E. coli H16 [2] = experiment: In vivo protection of neutropenic mice from systemic E. coli H16 infection (C-13 peptide analogs)
Excerpt: The ability of C-13 peptide analogs and cefepime combinations to protect mice from a lethal infection of E. coil was examined. Mice were made neutropenic by an injection of cyclophosphamide and then challenged with E. coli. Mice were then divided into four groups: (1) mice that were given PBS; (2) were given C-13 peptide analogs only; (3) were given cefepime only; and (4) were given a combination of C-13 peptide analogs and cefepime.
Male CrL:CF1 mice were made neutropenic five days prior to bacterial challenge. Neutropenia was induced by subcutaneous injection of 250 mg/kg Cytoxan (cyclophosphamide). The mice were challenged with either 2×10^4 E. coli H16 (Table 4) or 5×10^4 A645AP by intraperitoneal injection. Mice were divided into four treatment groups: (1) PBS; (2) C-13 peptide analog (15 mg/kg); (3) cefepime (0.1 mg/kg); (4) a combination treatment of cefepime and C-13 peptide analog (0.1 mg/kg cefepime and 15 mg/kg C-13 peptide analog) that were combined prior to injection. All injections were made in PBS (0.2 ml) and were administered intramuscularly with each injection in separate legs, one and 3.5 hours after bacterial challenge. The survival of the mice was monitored for ten days and the results analyzed by the Fisher Exact test.

[3] = system: endothelial cell proliferation; settings: Maione et al., 1990; cited from earlier work
[4] = system: E. COLI A645 (ATCC 25922); experiment: In vitro bactericidal activity (ID50) of cationic oligopeptides, serum bactericidal assay; assay type: cell-based, Escherichia coli
Description: Cells were diluted without washing to 5×10^4 cells/ml gelatin-veronel buffer (GBV++) and 0.05 ml was added to serum (see section 7.1.3.) in a 1.5 ml Eppendorf vial. For those bacterial cells pregrown in cefepime, the same amount of cefepime that was present during growth was added for both the preparation and examination of bactericidal activity. […] Peptides were diluted in deionized water to make a stock solution of 2 mg/ml and added to the reaction vial to give the appropriate concentration. The total reaction volume was 0.25 ml.

[5] = neutropenic mice, 2×10^4 E. coli H16 i.p., peptide 15 mg/kg, cefepime 0.1 mg/kg i.m. at one and 3.5 hours, ten days

## NCC[C@H](O)C(=O)N[C@@H]1C[C@H](N)[C@@H](O[C@H]2O[C@H](CN)[C@@H](O)[C@H](O)[C@H]2O)[C@H](O)[C@H]1O[C@H]1O[C@H](CO)[C@@H](O)[C@H](N)[C@H]1O [amikacin]
E. coli H16 [1]
  mice survived (out of total), amikacin experiment: three out of 10
E. coli ATCC 25922
  synergy of antibiotic with magainin 2: neither Amikacin, an aminoglycoside and ciproflaxacin, a quinoline were synergistic

## CC(C)C[C@H](NC(=O)[C@H](C)N)C(=O)N[C@@H](Cc1ccc(O)cc1)C(=O)N[C@@H](CCCN)C(=O)N[C@@H](CCCN)C(=O)N[C@@H](CC(C)C)C(=O)N[C@@H](CC(C)C)C(=O)N[C@@H](CCCN)C(=O)N[C@@H](CCCN)C(=O)N[C@@H](CC(C)C)C(=O)N[C@@H](CC(C)C)C(=O)N[C@@H](CCCN)C(=O)N[C@@H](CO)C(=O)N[C@@H](C)C(=O)N[C@@H](CCCN)C(=O)N[C@@H](CCCN)C(=O)N[C@@H](CC(C)C)C(=O)NCC(=O)O [analog II, Ala--Leu--Tyr--Orn--Orn--Leu--Leu--Orn--Orn--Leu--Leu--Orn--Ser--Ala--Orn--Orn--Leu--Gly] (H-ALY[Orn][Orn]LL[Orn][Orn]LL[Orn]SA[Orn][Orn]LG-OH)
Human red blood cells
  RBC LYSIS (%) (100 μG/ML): < 1%

## CC(C)C[C@@H](NC(=O)[C@@H](C)N)C(=O)N[C@H](Cc1ccc(O)cc1)C(=O)N[C@H](CCCCN)C(=O)N[C@H](CCCCN)C(=O)N[C@H](CC(C)C)C(=O)N[C@H](CC(C)C)C(=O)N[C@H](CCCCN)C(=O)N[C@H](CCCCN)C(=O)N[C@H](CC(C)C)C(=O)N[C@H](CC(C)C)C(=O)N[C@H](CCCCN)C(=O)N[C@H](CO)C(=O)N[C@H](C)C(=O)N[C@H](CCCCN)C(=O)N[C@H](CCCCN)C(=O)N[C@H](CC(C)C)C(=O)NCC(=O)O [analog X, dAla--dLeu--dTyr--dLys--dLys--dLeu--dLeu--dLys--dLys--dLeu--dLeu--dLys--dSer--dAla--dLys--dLys--dLeu--Gly] (H-[dA][dL][dY][dK][dK][dL][dL][dK][dK][dL][dL][dK][dS][dA][dK][dK][dL]G-OH)
Human red blood cells
  RBC LYSIS (%) (100 μG/ML): < 1%

## C[C@H]1[C@H](NC(=O)/C(=N\OC(C)(C)C(=O)O)c2csc(N)n2)C(=O)N1S(=O)(=O)O [aztreonam]
E. coli H16 [2]; similar experiments with aztreonam
  mice survived (out of total), aztreonam experiment: one out of 20
E. coli ATCC 25922
  synergy of antibiotic with magainin 2: synergistic

## CC(C)(O/N=C(\C(=O)N[C@@H]1C(=O)N2C(C(=O)[O-])=C(C[n+]3ccccc3)CS[C@H]12)c1csc(N)n1)C(=O)O [ceftazidime]
E. coli ATCC 25922
  synergy of antibiotic with magainin 2: synergistic

## O=C(O)c1cn(C2CC2)c2cc(N3CCNCC3)c(F)cc2c1=O [ciprofloxacin]
E. coli ATCC 25922
  synergy of antibiotic with magainin 2: neither Amikacin, an aminoglycoside and ciproflaxacin, a quinoline were synergistic

## C[C@@H](O)[C@H]1C(=O)N2C(C(=O)O)=C(SCCN=CN)C[C@H]12 [imipenem]
E. coli ATCC 25922
  synergy of antibiotic with magainin 2: synergistic

## AKKLAKLYKKLLKKLLKSAKKLG [analog J, Ala--Lys--Lys--Leu--Ala--Lys--Leu--Tyr--Lys--Lys--Leu--Leu--Lys--Lys--Leu--Leu--Lys--Ser--Ala--Lys--Lys--Leu--Gly]
Human red blood cells
  RBC LYSIS (%) (100 μG/ML): 2.5%
  change in the amount of RBC lysis: increased the amount of RBC lysis

## ALYKKIIKKLLESAKKLG [analog H, Ala--Leu--Tyr--Lys--Lys--Ile--Ile--Lys--Lys--Leu--Leu--Glu--Ser--Ala--Lys--Lys--Leu--Gly]
Human red blood cells
  RBC LYSIS (%) (100 μG/ML): 1.5%

## ALYKKLLKKLLESAKKLG [analog F, Ala--Leu--Tyr--Lys--Lys--Leu--Leu--Lys--Lys--Leu--Leu--Glu--Ser--Ala--Lys--Lys--Leu--Gly]
Human red blood cells
  RBC LYSIS (%) (100 μG/ML): < 1%

## ALYKKLLKKLLKFAKKFG [analog P, Ala--Leu--Tyr--Lys--Lys--Leu--Leu--Lys--Lys--Leu--Leu--Lys--Phe--Ala--Lys--Lys--Phe--Gly]
Human red blood cells
  RBC LYSIS (%) (100 μG/ML): 21%

## ALYKKLLKKLLKKAKKLG [analog KK, Ala--Leu--Tyr--Lys--Lys--Leu--Leu--Lys--Lys--Leu--Leu--Lys--Lys--Ala--Lys--Lys--Leu--Gly]
Human red blood cells
  RBC LYSIS (%) (100 μG/ML): < 1%

## ALYKKLLKKLLKSAKKLG [analog G, Ala--Leu--Tyr--Lys--Lys--Leu--Leu--Lys--Lys--Leu--Leu--Lys--Ser--Ala--Lys--Lys--Leu--Gly]
Human red blood cells
  RBC LYSIS (%) (100 μG/ML): < 1%
  change in the amount of RBC lysis: no increase

## ALYRRLLRRLLRSARRLG [analog HH, Ala--Leu--Tyr--Arg--Arg--Leu--Leu--Arg--Arg--Leu--Leu--Arg--Ser--Ala--Arg--Arg--Leu--Gly]
Human red blood cells
  RBC LYSIS (%) (100 μG/ML): 3%

## C-10: human platelet factor-4 peptide, amino acids 58-67 (PLYKKIIKKL; UniProt P02776 89-98, looked up, fragment)
[3]
  inhibitory action compared with C-13: Little inhibitory action

## C-11: human platelet factor-4 peptide, amino acids 58-68 (PLYKKIIKKLL; UniProt P02776 89-99, looked up, fragment)
[3]
  inhibitory action compared with C-13: less inhibitory

## C-12: human platelet factor-4 peptide, amino acids 58-69 (PLYKKIIKKLLE; UniProt P02776 89-100, looked up, fragment)
[3]
  inhibitory action compared with C-13: less inhibitory

## Cecropin
E. coli H16 [2]; Fisher Exact test
  protection from systemic E. coli H16 infection: no significant increase in protection
E. coli H16 [2]; [5]
  % Survival: 20%
  Number--Survived/Total: 2/20
[4]; 1/4 MIC cefepime, NHS
  ID50 1/4 MIC CEFEPIME NHS: .25 µg/mL
[4]; 1/4 MIC cefepime, heat inactivated NHS
  ID50 1/4 MIC CEFEPIME HI-NHS: .5 µg/mL
[4]; no cefepime, NHS
  ID50 NO CEFEPIME NHS: 1 µg/mL
[4]; no cefepime, heat inactivated NHS
  ID50 NO CEFEPIME HI-NHS: 1 µg/mL
Human red blood cells; 100 μG/ML peptide, 37° C. for 45 minutes
  RBC LYSIS (%) (100 μG/ML): < 1%

## KWKLYKKLLKKLLKSAKKLG [analog N, Lys--Trp--Lys--Leu--Tyr--Lys--Lys--Leu--Leu--Lys--Lys--Leu--Leu--Lys--Ser--Ala--Lys--Lys--Leu--Gly]
Human red blood cells
  RBC LYSIS (%) (100 μG/ML): 7.5%

## MGN 1: magainin 1, 23 amino acid cationic oligopeptide from skin secretions of Xenopus laevis (GIGKFLHSAGKFGKAFVGEIMKS; Magainin-1; UniProt P11006 37-59, looked up)
E. coli ATCC 25922; untreated bacteria, 40% PNHS
  MGN killing of untreated bacteria: blocked the action

## PLYKKIIKKLLES [C-13, Pro--Leu--Tyr--Lys--Lys--Ile--Ile--Lys--Lys--Leu--Leu--Glu--Ser]
Human red blood cells
  RBC LYSIS (%) (100 μG/ML): < 1%
